This is an account of results in patent publication US20100323950A1, “USE OF BETA-MELANOTROPIN AS A THERAPEUTIC AGENT, EG FOR THE TREATMENT OF AIDS OR ALZHEIMER” (priority 2007, published 2010).

The subject of one data set is Pseudomonas aeruginosa. The conditions noted are these: 5 micrograms per ml.
The test system of a further data set is Streptococcus pneumoniae. The conditions noted are these: 5 micrograms per ml.
A short description of data set [1]: Cytotoxicity (dye uptake cell viability) in HepG2-2.2.15 cells. The note with it: human.
The nature of the next data set: in vitro. The note with it: human, MRC-5 cells (human embryonal lung fibroblasts).
In the next data set the test system is MRSA. The conditions noted are these: 5 micrograms per ml.

The % inhibition is the percentage by which the read-out fell short of the control. Low readings indicate little suppression, high ones strong suppression. The viability is the share of living cells, or the viability signal relative to a control. A high value points to better survival.

Structures are written as SMILES.

Consider `CSCC[C@H](NC(=O)[C@H](CCCNC(=N)N)NC(=O)[C@H](Cc1ccc(O)cc1)NC(=O)[C@@H]1CCCN1C(=O)CNC(=O)[C@H](CCC(=O)O)NC(=O)[C@H](CC(=O)O)NC(=O)[C@H](CCCCN)NC(=O)[C@H](CCCCN)NC(=O)[C@H](CCC(=O)O)NC(=O)[C@H](C)N)C(=O)N[C@@H](CCC(=O)O)C(=O)N[C@@H](Cc1c[nH]cn1)C(=O)N[C@@H](Cc1ccccc1)C(=O)N[C@@H](CCCNC(=N)N)C(=O)N[C@@H](Cc1c[nH]c2ccccc12)C(=O)NCC(=O)N[C@@H](CO)C(=O)N1CCC[C@H]1C(=O)N1CCC[C@H]1C(=O)N[C@@H](CCCCN)C(=O)N[C@@H](CC(=O)O)C(=O)O` [Beta MSH], for which the “% inhibition” value in the data set on Pseudomonas aeruginosa, with Streptococcus pneumoniae and with MRSA was 0.0% throughout. In data set [1], this compound came in with a viability at 144 h, 10 micrograms per ml of 100%. Further, the viability at 144 h in “in vitro” was 100%.
